{"source": "patent US20260345593A1", "about": "“ORAL FORMULATION OF N-PYRIDINYL ACETAMIDE DERIVATIVE FOR TREATING INTERSTITIAL LUNG DISEASE” (AstraZeneca AB, priority 2022, published 2026)", "key": {"[1]": {"test": "Example 2, second clinical study: pharmacokinetics, bioavailability, food and rabeprazole effect", "format": "in vivo, human", "conditions": "for bioavailability: human, in vivo, po, 20 mg, 20 mg film-coated tablet, fasted, vs IV infusion", "procedure": "(§1) The study comprises a screening period of maximum 28 days, and five periods during which subjects will participate from Day −1 of Period 1 to 72 hours after the AZD5055 dose in Period 5.\n(§2) Period 1: On Day 1, the subjects will receive either 5 mg AZD5055 as a 20-minute IV infusion (Treatment A) in an overnight fasted state or AZD5055 20 mg as oral suspension (Treatment B) in an overnight fasted state.\n(§3) Period 2: On Day 1 (Study Day 4), the subjects will receive 20 mg AZD5055 film-coated tablet (Treatment C) in an overnight fasted state.\n(§4) Period 3: On Day 1 (Study Day 8) the subjects will receive a standardized high-fat breakfast 30 minutes before 20 mg AZD5055 administered as film-coated tablet (Treatment D).\n(§5) Period 4: On Study Day 10, three days prior to Day 1, 20 mg rabeprazole will be administered twice daily. On Day 1 (Study Day 13), 20 mg AZD5055 film-coated tablet will be administered together with rabeprazole and rabeprazole dosing will continue twice daily (Treatment E).\n(§6) Period 5: On Day 1 (Study Day 17) the participants will receive a low-fat breakfast 30 minutes before 20 mg AZD5055 film-coated tablet administered together with 20 mg rabeprazole.\n(§7) Rabeprazole will continue twice daily, the last dose is on the evening of Study Day 18 (Treatment F).\nThere will be a minimum washout of 3 days between the AZD5055 dose administration in Period 1 and Period 2 and a minimum washout of 4 days between AZD5055 doses administrations for subsequent study periods. Repeated PK (pharmacokinetic) sampling will be performed pre-dose to 48 hours after dosing of AZD5055 of each period. Subjects will be discharged on Study Day 20 (Day 4 of Period 5), after all the samples have been collected and all the assessments have been performed.\nRabeprazole is administered as oral doses of 20 mg BID in the morning and evening. Pre-treatment with rabeprazole for 3 days is required to reach the PD (pharmacodynamic) steady state of pH elevation prior to administration of AZD5055.\nA high-fat, high-calorie breakfast constitutes the following: 2 eggs fried in butter; 2 strips of bacon; 2 slices of toast with butter; 112 g/4 oz of hash-brown potatoes; 240 mL/8 oz of whole milk.\nA low-fat, low-calorie breakfast constitutes the following: 1 boiled egg; 1 packet flavoured instant oatmeal made with water; 240 mL/8 oz milk (1% fat).\nPharmacokinetic Parameters—Pharmacokinetic parameters of AZD5055 included, but were not limited to, Cmax, AUCinf, and AUClast.\nApproximately 18 healthy participants were enrolled to ensure that at least 15 participants completed the 5-period study. It was expected that the proposed sample size would give adequate information on the effect of formulation and concomitant treatment on the exposure of AZD5055, while exposing as few participants as possible to study procedures. Interpretation of the results were based on the estimated geometric mean ratio (GMR) and the associated 90% confidence interval (CI) between the combination of test and reference for AUC and Cmax.\nPlasma concentrations were listed for each participant at each actual sampling time and summarized by treatment and nominal sampling time, using the same descriptive statistics as for the PK parameters. Graphical presentations included individual and geometric mean time-concentration curves (actual sampling time for individual curves and nominal sampling time for mean curves) on linear and semi-logarithmic scale. Pharmacokinetic variables and diagnostics of the PK analysis were listed, and PK variables were summarized by treatment using descriptive statistics (n, geometric mean, geometric coefficient of variation [gCV; %], arithmetic mean, arithmetic standard deviation [SD], minimum [min], median, and maximum [max]) for all variables except tmax, which were summarized using n, min, median, and max. […]"}, "healthy participants": {"tested_on": "healthy participants", "test": "Example 2: safety in healthy participants", "format": "in vivo, human", "procedure": "as §1, §2, §3, §4, §5, §6, §7\nSafety Variables—Safety endpoints included adverse events (AEs), clinical laboratory assessments (hematology, clinical chemistry, urinalysis, and urinary albumin:creatinine ratios), vital signs and peripheral oxygen saturation (SpO2), standard 12-lead electrocardiogram, (ECG), telemetry, and physical examinations.\nAll safety data (scheduled and unscheduled) were presented in the data listings. Continuous variables were summarized using descriptive statistics (n, mean, SD, min, median, max) by treatment. Categorical variables were summarized in frequency tables (frequency and proportion) by treatment/dose group. The analysis of the safety variables was based on the safety analysis set."}, "[2]": {"test": "oral bioavailability in several animal species", "conditions": "in vivo, read-out: observed oral bioavailability"}, "[3]": {"tested_on": "bleomycin-mediated fibrosis in the lungs of rats", "conditions": "cited from earlier work"}, "[4]": {"tested_on": "mouse bleomycin in vivo pulmonary fibrosis", "conditions": "mouse bleomycin in vivo study (Bunyard 2019); cited from earlier work"}, "[5]": {"tested_on": "carbon tetrachloride-induced hepatic fibrosis in mice", "conditions": "mice (Bunyard 2019); cited from earlier work"}, "[6]": {"conditions": "cited from earlier work"}, "[7]": {"conditions": "20 mg film-coated tablet vs oral suspension"}, "[8]": {"conditions": "tablet + rabeprazole fasted vs AZD5055 fasted alone"}, "[9]": {"conditions": "tablet + rabeprazole fed vs AZD5055 fasted alone"}, "[10]": {"conditions": "tablet with rabeprazole, fed vs fasted"}}}
{"compound": "Cc1cc(-c2nccc3c2ccn3CC(=O)Nc2ccc(-c3cnccn3)cn2)ccn1", "note": "[AZD5055, 2-[4-(2-methyl-4-pyridyl)pyrrolo[3,2-c]pyridin-1-yl]-N-(5-pyrazin-2-yl-2-pyridyl)acetamide]", "values": [{"measurement": "reduction in Cmax, tablet vs oral suspension", "setting": "[1]; [7]", "result": "approximately 35%"}, {"measurement": "total systemic exposure (AUCinf and AUClast), tablet vs oral suspension", "setting": "[1]; [7]", "result": "comparable"}, {"measurement": "Cmax relative to IV dose", "setting": "[1]; film-coated tablet, percent of the IV dose", "result": "approximately 21%"}, {"measurement": "bioavailability", "setting": "[1]; read-out: absolute bioavailability based on AUCinf", "result": "~66", "unit": "%"}, {"measurement": "bioavailability", "setting": "[1]; read-out: absolute bioavailability based on AUClast", "result": "~64", "unit": "%"}, {"measurement": "change in total systemic exposure (AUCinf and AUClast) with rabeprazole, fasted", "setting": "[1]; [8]", "result": "no change in total systemic exposure"}, {"measurement": "reduction in Cmax with rabeprazole, fasted", "setting": "[1]; [8]", "result": 32, "unit": "%"}, {"measurement": "change in total systemic exposure (AUCinf and AUClast) with rabeprazole, fed", "setting": "[1]; [9]", "result": "no change in total systemic exposure"}, {"measurement": "reduction in Cmax with rabeprazole, fed", "setting": "[1]; [9]", "result": 20, "unit": "%"}, {"measurement": "food effect on total systemic exposure with rabeprazole", "setting": "[1]; [10]", "result": "food did not impact total systemic exposure"}, {"measurement": "increase in Cmax by food with rabeprazole", "setting": "[1]; [10]", "result": "approximately 17%"}, {"measurement": "participants with SAE (transaminases increased), possibly related", "setting": "healthy participants; Period 3 (tablet, high-fat fed)", "result": "One"}, {"measurement": "AEs leading to discontinuation, events", "setting": "healthy participants; after dosing in Period 3", "result": 2, "unit": "events"}, {"measurement": "participants with AE leading to discontinuation", "setting": "healthy participants; after dosing in Period 3, transaminases increased and non-cardiac chest pain", "result": "Two"}, {"measurement": "participants with at least 1 AE of Grade 1 intensity", "setting": "healthy participants; in total", "result": 8, "unit": "participants"}, {"measurement": "participants with at least 1 AE of Grade 2 intensity", "setting": "healthy participants; in total", "result": 4, "unit": "participants"}, {"measurement": "AEs Grade 3 or higher", "setting": "healthy participants; in vivo", "result": "No AEs Grade 3 or higher"}, {"measurement": "deaths", "setting": "healthy participants; in vivo", "result": "no deaths"}, {"measurement": "laboratory parameters, vital signs, ECGs, physical examination", "setting": "healthy participants; in vivo", "result": "No clinically relevant trends"}, {"measurement": "AEs possibly related to AZD5055, events", "setting": "healthy participants; overall", "result": 9, "unit": "events"}, {"measurement": "any AE, events", "setting": "healthy participants; overall", "result": 20, "unit": "events"}, {"measurement": "participants with any AE", "setting": "healthy participants; overall", "result": 11, "unit": "participants"}, {"measurement": "participants with any AE possibly related to AZD5055", "setting": "healthy participants; overall", "result": "Five"}, {"measurement": "tolerability", "setting": "healthy participants; single oral and IV doses", "result": "generally well tolerated"}, {"measurement": "bioavailability", "setting": "[2]", "result": "40 to 60", "unit": "%"}, {"measurement": "pulmonary fibrosis", "setting": "[3]; rat bleomycin in vivo study (Bunyard 2019)", "result": "reduced pulmonary fibrosis"}, {"measurement": "bleomycin-mediated fibrosis in the lungs", "setting": "[3]; rats, preliminary studies (Bunyard 2019)", "result": "reduces bleomycin-mediated fibrosis in the lungs of rats"}, {"measurement": "pulmonary fibrosis", "setting": "[4]", "result": "reduced pulmonary fibrosis"}, {"measurement": "carbon tetrachloride-induced hepatic fibrosis", "setting": "[5]", "result": "reduces"}, {"measurement": "solubility", "setting": "[6]", "result": "pH dependent"}]}
